Measured values as given in patent US20110059123A1, “Inhibition of the Survival of Colorectal Cancer by Cyclohexenone Compounds from Antrodia Camphorata” (GOLDEN BIOTECHNOLOGY CORPORATION, priority 2009, published 2011).

Tested on: colorectal cancer cell line WiDr
Assay: In vitro survival assay (MTT) for anti-colorectal cancer effects
Format: cell-based
Conditions: WiDr human colon adenocarcinoma cells, 48 hours treatment, survival rate
Experimental: Inhibiting effects of colorectal cancer cells by cyclohexenone compounds of Antrodia camphorata from example 1 were assessed according to the anticancer-drug screening model of National Cancer Institute (NCI). The compound 4-hydroxy-2,3-dimethoxy-6-methyl-5-(3,7,11-trimethyl-dodeca-2,6,10-trienyl)-cyclohex-2-enone from example 1 was added into the culture media of colorectal cancer cell line WiDr to determine the survival rates. Survival of cell was analyzed using MTT assay. WiDr cell line was a human colon adenocarcinoma cell line.
MTT assay is commonly used to analyze cell proliferation, survival rate of viable cells and cytotoxicity. MTT (3[4,5-dimethylthiazol-2-yl]-2,5-diphenyltetrazolium bromide) is a yellow dye which can be converted to water-insoluble purple formazan on the reductive cleavage of its tetrazolium ring by the succinate tetrazolium reductase in mitochondria of cells. The amount of formazan produced is used to detect the number of viable cells and calculate the survival rates.
The WiDr cells were cultivated in RPMI 1640 medium supplemented with 10% fetal bovine serum, 100 IU/ml of Penicillin and […] of Streptomycin at 37° C., 5% CO2 for 24 hours. Proliferated cells were washed once with PBS, treated with 1× trypsin-EDTA, and centrifuged at 1200 rpm for 5 min. […] The absorbances were measured at 570 nm with an ELISA Reader to determine the survival rates.

COC1=C(OC)C(O)C(C/C=C(\C)CC/C=C(\C)CCC=C(C)C)C(C)C1=O (stereo not shown) [formula 2, 4-hydroxy-2,3-dimethoxy-6-methyl-5-(3,7,11-trimethyl-dodeca-2,6,10-trienyl)-cyclohex-2-enone]
IC50: 0.92 µg/mL
